Assay results taken from PMC8536627, “Hydrolytic stability of anticancer drugs and one metabolite in the aquatic environment” (Environmental Science and Pollution Research International, 2021).
Read-outs that look alike come from different tables or passages of the source.

Legend:
[1] = design: method as in Legay et al. [2014]; settings: ref Legay et al. [2014]; cited from earlier work
[2] = HPLC water with 4 % DMSO, ref Negreira et al. ([2013a]), cited from earlier work; for Degradation level / loss: 25 °C, 24 h incubation
[3] = design: method as in Yadav et al. [2012]; settings: also under several stress conditions; ref Yadav et al. [2012]; cited from earlier work
physchem = settings: for Hydrolytic stability in the preliminary test: pH 4, 7 and 9, 50 °C
Description: The incubation was performed in the dark, in order to avoid the influence of the photolysis on degradation of the analytes. The water used for the preparation of buffers was autoclaved, all glassware was clean, flushed with methanol, and dried in high temperature. Samples were closed in glass tubes with a sealed cap. The air from above the solution was removed by a nitrogen stream just before capping. In the preliminary test, solutions of single analytes were prepared in each tested pH: 4, 7, and 9, which is required by the OECD guidelines. There was also a blank sample prepared for each pH. Samples in the preliminary test were prepared in two parallel replicates. Moreover, the complete preliminary test was repeated twice. The preliminary test was performed at 50 °C for 5 days. […] In the case of the extended tests, 7 measuring points were provided during the time of the test. Each measuring point was performed in two parallel replicates. […] The test was conducted for 30 days or to 90 % elimination of a compound. Obtained results were used to determine the hydrolysis rate constant (k) using equation: 1 lnCt/C0=kt
The HPLC-UV/Vis technique was applied to determine the level of hydrolytic degradation of the analytes. In the preliminary test, the control and blank samples were analyzed at the beginning and the end of the test. […] In the extended test, the samples collected in the time intervals were analyzed, and peak areas were compared to those obtained at the beginning of the test. This was used to determine the kinetic of this hydrolysis process by using the Equation 1. In general, each analyte was analyzed by a simple HPLC method with UV/Vis detection. Gemini C18 (Phenomenex, USA), 5 μm, 110 Å, 150 mm × 4.6 mm chromatographic column was applied for each method and three different mobile phases were used (water or 0.1 % HCOOH) mixed with the acetonitrile. The conditions applied during the LC-MS analysis with an ion trap detector for the qualitative analysis of the samples collected after the extended tests at 20 and 70 °C are presented in the Table S2.

[4] = design: method as in McElnay et al. ([1988]) and Vrignaud et al. ([2015]); settings: ref McElnay et al. ([1988]) and Vrignaud et al. ([2015]); cited from earlier work
[5] = design: method as in Negreira et al. ([2013b]); settings: acidification of samples, organic modifier such as 50 % methanol or DMSO, previously tested conditions; ref Negreira et al. ([2013b]); cited from earlier work
[6] = design: method as in Białk-Bielińska et al. [2017]; settings: ref Białk-Bielińska et al. [2017]; cited from earlier work

Structure (SMILES) | Stability in aqueous solutions for medication purposes [1] | Stability in 24 h test ([2]; 4 °C, 24 h) | Long-term stability at 4 °C ([2]; 4 °C) | Stability in 24 h test ([2]; 15 °C, 24 h) | Degradation level / loss [2] [%] | Temperature up to which found stable [3] | half-life (physchem; buffer) [days] | Hydrolytic stability in the preliminary test (physchem; 5 days) | Time of proved stability [4] | Concentration decreased to ([2]; 4 °C, after 9 days) | Disappeared from solution ([2]; 15 °C, 24 h) | Stability after acidification and with organic modifier [5] | half-life (physchem; aqueous buffer) [days] | Degradation level in the preliminary test (physchem; pH 4, 50 °C, 5 days, dark) [%] | Hydrolytic stability under ecotoxicological test conditions [6] | Photolytic stability under ecotoxicological test conditions [6]
O=c1[nH]cc(F)c(=O)[nH]1 [5-FU, 5-fluorouracil] | stable | stable | stable for 1 month | still stable | 11 | up to 275 °C | ≥ 365 | hydrolytically stable | – | – | – | – | – | – | – | –
CN(Cc1cnc2nc(N)nc(N)c2n1)c1ccc(C(=O)N[C@@H](CCC(=O)O)C(=O)O)cc1 [MTX, methotrexate] | – | stable | – | – | 65 | – | – | hydrolytically stable | at least 24 h | around 50% | more than 50% | stable | ≥ 365 | 0 | hydrolytically stable | susceptible to photolysis
